Measurements from paper PMC8534003, “The Chemokine-Based Peptide, CXCL9(74-103), Inhibits Angiogenesis by Blocking Heparan Sulfate Proteoglycan-Mediated Signaling of Multiple Endothelial Growth Factors” (Cancers, 2021).
Where no end group is shown, it is not given here.

Tests used:
HMVECs = assay: In vitro toxicity assay (LIVE/DEAD viability/cytotoxicity); type: cell-based, human; conditions: 0.3 or 3 µM, 24 h, calcein-AM/EthD-1, n = 4
Method: HMVECs were seeded in MCDB131 medium supplemented with 3% (v/v) FCS at 8 × 10^3 cells/well in a black, clear bottom 96-well plate coated with 0.1% (v/v) gelatin in PBS. The next day, cells were washed and incubated with control medium (vide supra) alone or in the presence of 0.3 or 3 µM of CXCL9(74-103) or CXCL9(86-103) for 24 h. The negative control cells were treated with 2% (v/v) Triton™ X-100 to induce cell death […] after the start of the experiment, i.e., 1 h prior to the addition of the LIVE/DEAD stain. The toxicity of the peptides was assessed using the LIVE/DEAD viability/cytotoxicity kit (Invitrogen, Carlsbad, CA, USA), according to the manufacturer’s instructions. At 24 h, calcein-acetoxymethyl ester (AM) and ethidium homodimer-1 (EthD-1) in 0.4% (v/v) FCS in DMEM FluoroBrite (Gibco) were added to all wells and the fluorescence was measured in the IncuCyte S3 live cell imaging system (Essen BioScience, Ltd.; Newark, UK).

FGF-2 [1] = biological target: T1, FGF-2 (Homo sapiens, UniProt P09038); assay: Grating-coupled interferometry (GCI); type: binding; conditions: FGF-2 over immobilized biotinylated CXCL9(74-103), 25 °C, pH 7.4; mean ± SEM, n = 3
T1 construct: purchased R&D Systems
Method: GCI experiments were performed on a Creoptix WAVEdelta system (Creoptix AG, Wädenswil, Switzerland), which is a label-free surface biosensor system for the characterization of molecular interactions. 4PCP-STA chips (Creoptix AG) were used, which contain a quasi-planar polycarboxyl-matrix with pre-immobilized streptavidin. The running buffer for the experiments was PBS supplemented with 30 mM NaCl, 15 mM L-Arginine, 0.015% (v/v) Tween® 20 and 0.05 mg/mL BSA at pH 7.4 for reducing nonspecific binding. Chips were conditioned using borate buffer (100 mM sodium borate, 1 M NaCl, pH 9.0). Capture was performed by injecting biotinylated CXCL9(74-103) at a concentration of 2 µg/mL and a flow rate of 10 µL/minute over the chip surface, until a density of +/− 160 was reached. After capture of biotinylated CXCL9(74-103), binding with FGF-2 was studied by injecting an FGF-2 concentration series over the chip surface. […] A reference channel was blocked in the same way. Injections of the FGF-2 analyte were performed at 25 °C, with an association and dissociation time of 120 seconds and a flow rate of 40 µL/min. Absence of mass-transport limitation was verified by repeating the experiment at 50 µL/minute. A 1:3 dilution series with six dilutions (4.53 nM, 13.6 nM, 40.7 nM, 122 nM, 367 nM, 1.10 µM; all in duplicate) was analyzed. […]

FGF-2 [2] = conditions: cited from earlier work
Text: Earlier studies that report on targeting HS-mediated interactions most commonly rely on HS mimetics that either mask HS for GF binding or directly interact with the GF, preventing it from binding to HS [39]. […] Pagano et al. reported that the small molecule inhibitor SM27, derived from the FGF-2-binding region of thrombospondin-1 (TSP-1), selectively bound the heparin-binding site of FGF-2 ...

[3] = system: EGFR and α3β1 integrin / syndecan-4; conditions: cited from earlier work
Text: Syndecan-4, the most abundant mammalian syndecan, has been described to function as an independent receptor for several heparin-binding growth factors such as FGFs, VEGFs and PDGFs. Upon ligand binding, the HSPGs oligomerize and initiate signaling components such as mammalian target of rapamycin (mTOR), RAC-α serine/threonine-protein kinase (AKT1) and the Rho family of GTPases, which are r ...

T1 sequence (P09038 143-288): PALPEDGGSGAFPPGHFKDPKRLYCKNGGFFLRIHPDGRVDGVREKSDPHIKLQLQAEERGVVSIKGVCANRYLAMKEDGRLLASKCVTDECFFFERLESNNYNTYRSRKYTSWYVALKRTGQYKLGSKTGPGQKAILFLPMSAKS

Q: With “KKKQKNGKKHQKKKVLKVRKSQRSRQKKTT [CXCL9(74-103)]” as the substance, how does the “cell viability / toxicity” value (HMVECs) read?
A: without inducing any cell toxicity

Q: And the koff (FGF-2 [1])?
A: 0.00207 s⁻¹

Q: What about the kon (FGF-2 [1]) of the same substance?
A: 20000 M⁻¹ s⁻¹

Q: For “TSP-2: another TSP (thrombospondin) with anti-angiogenic activity”, which “interaction with FGF-2” value (FGF-2 [2]) is on record?
A: able to interact with FGF-2 and interfered with HS and FGFR1 binding

Q: Which “displacement from syndecan and cell migration” value [3] does the source give for “synstatin (SSTNEGFR): a peptide based on the EGFR interaction motifs” here?
A: displaces the RTK and α3β1 integrin from the syndecan and prevents cell migration
